Like-named read-outs stand apart in the source and are kept apart here. No end group written: not given here.
What was measured:
[1] = test system: Escherichia coli (E. coli) ATCC 25922; experiment: microbe, parasite or virus in culture; conditions: for MIC: Escherichia coli, ATCC25922, 18 h, read-out: MIC against E. coli; for MIC, Ec (Table 1S): supplement Table 1S, unit not given (main-text tables: μg/mL), capital letter component 95 mg
Method: (§1) Antimicrobial activity was evaluated using the Community for Open Antimicrobial Drug Discovery (CO-ADD) screening platform. Minimum inhibitory concentrations (MICs) were determined against the following five bacterial strains: Escherichia coli (E. coli) ATCC 25922, Klebsiella pneumoniae ATCC 700603, Acinetobacter baumannii ATCC 19606, Pseudomonas aeruginosa ATCC 27853, and Staphylococcus aureus ATCC 43300.
(§2) Bacteria were cultured in cation-adjusted Mueller–Hinton broth (CAMHB) at 37 °C overnight. Cultures were diluted 40-fold in fresh broth and incubated at 37 °C for 1.5–3 h. Mid-log phase cultures were then diluted and added to the compound-containing plates, giving a final cell density of 5 × 10^5 CFU/mL in a total volume of 50 μL. Plates were incubated at 37 °C for 18 h without shaking.
(§3) Bacterial growth inhibition was determined by measuring the absorbance at 600 nm (OD600) using a Tecan M1000 Pro monochromator plate reader. The percentage of growth inhibition was calculated using negative (media only) and positive (bacteria without inhibitors) controls. Significance was determined by modified Z scores calculated using the median and MAD of the samples on the same plate. Samples with inhibition values above 80% and Z scores above 2.5 for either replicate were classified as active.
(§4) The fractional inhibitory concentration (FIC) index was calculated to determine synergy, additivity, or antagonism.
(§5) Colistin and VAN were used as positive bacterial inhibitor standards for Gram-negative and Gram-positive bacteria, respectively. The quality control (QC) of the assays was determined by the antimicrobial controls and the Z’ factor (using positive and negative controls).
(§6) Percentage growth inhibition was calculated using negative (media only) and positive (bacteria without inhibitors) controls. Modified Z scores were used to determine the significance of the inhibition values. Samples with inhibition values of above 80% and Z scores of above 2.5 for either replicate were classified as active. Data are presented as the mean ± standard deviation from at least three independent experiments.

[2] = test system: Pseudomonas aeruginosa ATCC 27853; experiment: microbe, parasite or virus in culture; conditions: for MIC: Pseudomonas aeruginosa, ATCC27853, 18 h, read-out: MIC against Pa; for MIC, Pa (Table 1S): supplement Table 1S, unit not given (main-text tables: μg/mL), capital letter component 95 mg
Method: as §1, §2, §3, §4, §5, §6

[3] = test system: Acinetobacter baumannii ATCC 19606; experiment: microbe, parasite or virus in culture; conditions: for MIC: Acinetobacter baumannii, ATCC19606, 18 h, read-out: MIC against Ab; for MIC, Ab (Table 1S): supplement Table 1S, unit not given (main-text tables: μg/mL), capital letter component 95 mg
Method: as §1, §2, §3, §4, §5, §6

[4] = test system: Staphylococcus aureus ATCC 43300 (MRSA); experiment: microbe, parasite or virus in culture; conditions: for MIC: Staphylococcus aureus, read-out: MIC against MRSA; for MIC, Sa (Table 1S): supplement Table 1S, unit not given (main-text tables: μg/mL), capital letter component 95 mg
Method: as §1, §2, §3, §4, §5, §6

[5] = test system: human red blood cells (RBCs); experiment: Hemolysis assay; format: cell-based
Method: (§7) Cytotoxicity was evaluated using human embryonic kidney (HEK293) and human red blood cells (RBCs). HEK293 cells were cultured in DMEM supplemented with 10% FBS. Cells were seeded in 384-well plates and incubated with peptides for 24 h. Cell viability was assessed using the resazurin reduction assay. Hemolysis assays were performed using fresh human RBCs incubated with peptides for 1 h at 37 °C.

[6] = test system: human embryonic kidney (HEK293) cells; experiment: Cytotoxicity, resazurin reduction assay; format: cell-based
Method: as §7

human cells = format: cell-based
[7] = summary in words, Table 5; earlier biophysical studies ref 20; cited from earlier work
From the text: Table 5 Structure–Activity Relationships of (RW)n Peptides ^a | column: Thermal stability

[8] = test system: Klebsiella pneumoniae ATCC 700603; experiment: microbe, parasite or virus in culture; conditions: for MIC against Kp: ATCC 700603, 18 h; for MIC, Kp (Table 1S): supplement Table 1S, unit not given (main-text tables: μg/mL), capital letter component 95 mg, minor letter component 5 mg
Method: as §1, §2, §3, §4, §5, §6

[9] = test system: Gram-positive and Gram-negative bacteria; experiment: Structure-activity summary: antimicrobial activity (Table 5); format: cell-based; conditions: summary in words
[10] = S. aureus ATCC 43300, CAMHB, 5 × 10^5 CFU/mL, 37 °C, 18 h, OD600, mixtures: capital letter component 95 mg, minor letter component 5 mg

Compound	MIC, Ec (Table 1S) ([1]; minor letter component 5 mg)	MIC, Pa (Table 1S) ([2]; minor letter component 5 mg)	MIC, Ab (Table 1S) ([3]; minor letter component 5 mg)	MIC, Sa (Table 1S) ([4]; minor letter component 5 mg)	MIC, Hm (Table 1S) [5]	MIC, Hk (Table 1S) [6] [µg/mL]	Toxicity (human cells)	Thermal stability [7]	MIC against E. coli ([1]; ATCC 25922, 18 h) [µg/mL]	MIC against Pa ([2]; ATCC 27853, 18 h) [µg/mL]	MIC against Ab ([3]; ATCC 19606, 18 h) [µg/mL]	MIC against Kp [8] [µg/mL]	MIC, Kp (Table 1S) [8]	MIC against MRSA ([4]; ATCC 43300, 18 h) [µg/mL]	RBC hemolysis MIC [5] [µg/mL]	Antimicrobial activity [9]	HEK293 cells MIC ([6]; 24 h) [µg/mL]	also measured
CC1(C)S[C@@H]2[C@H](NC(=O)[C@H](N)c3ccccc3)C(=O)N2[C@H]1C(=O)O [AMP, ampicillin, reference compound]	8	> 32	> 32	32	> 32	> 32												MIC [1]: 8 µg/mL; MIC [2]: > 32 µg/mL; MIC [3]: > 32 µg/mL; MIC ([4]; 18 h): 32 µg/mL
CC[C@H](C)[C@H](N)C(=O)N[C@@H](CC(C)C)C(=O)N1CCC[C@H]1C(=O)N[C@@H](Cc1c[nH]c2ccccc12)C(=O)N[C@@H](CCCCN)C(=O)N[C@@H](Cc1c[nH]c2ccccc12)C(=O)N1CCC[C@H]1C(=O)N[C@@H](Cc1c[nH]c2ccccc12)C(=O)N[C@@H](Cc1c[nH]c2ccccc12)C(=O)N1CCC[C@H]1C(=O)N[C@@H](Cc1c[nH]c2ccccc12)C(=O)N[C@@H](CCCN=C(N)N)C(=O)N[C@@H](CCCN=C(N)N)C(N)=O [Indolicidin, reference compound]																		RBC hemolysis MIC ([5]; fresh human RBCs, 1 h, 37 °C): >32 µg/mL
N=C(N)NCCC[C@H](NC(=O)[C@H](Cc1c[nH]c2ccccc12)NC(=O)[C@H](CCCNC(=N)N)NC(=O)[C@H](Cc1c[nH]c2ccccc12)NC(=O)[C@H](CCCNC(=N)N)NC(=O)[C@H](Cc1c[nH]c2ccccc12)NC(=O)[C@H](CCCNC(=N)N)NC(=O)[C@H](Cc1c[nH]c2ccccc12)NC(=O)[C@H](CCCNC(=N)N)NC(=O)[C@H](Cc1c[nH]c2ccccc12)NC(=O)[C@@H](N)CCCNC(=N)N)C(=O)N[C@@H](Cc1c[nH]c2ccccc12)C(N)=O [RW6]	<= 0.25	> 32	> 32	<= 0.25	<= 0.25	> 32	Moderate	High	≤0.25	>32	>32	>32	> 32	≤0.25	≤0.25	High	>32	
CN[C@H](CC(C)C)C(=O)N[C@H]1C(=O)N[C@@H](CC(N)=O)C(=O)N[C@H]2C(=O)N[C@H]3C(=O)N[C@H](C(=O)N[C@H](C(=O)O)c4cc(O)cc(O)c4-c4cc3ccc4O)[C@H](O)c3ccc(c(Cl)c3)Oc3cc2cc(c3O[C@@H]2O[C@H](CO)[C@@H](O)[C@H](O)[C@H]2O[C@H]2C[C@](C)(N)[C@H](O)[C@H](C)O2)Oc2ccc(cc2Cl)[C@H]1O [VAN, vancomycin, reference compound]	> 32	> 32	> 32	<= 0.25									> 32					MIC [1]: > 32 µg/mL; MIC [2]: > 32 µg/mL; MIC [3]: > 32 µg/mL; MIC ([8]; Klebsiella pneumoniae, ATCC700603, 18 h, read-out: MIC against Kp): > 32 µg/mL; MIC ([4]; 18 h): ≤ 0.25 µg/mL; MIC, Hm (Table 1S) ([5]; supplement Table 1S, Hm = human RBC hemolysis, 1 h, 37 °C, unit not given (main-text tables: μg/mL), capital 95 mg, minor letter 5 mg, in µg/mL): 28.69; HEK293 cytotoxic concentration ([6]; supplement Table 1S, Hk = HEK293 cytotoxicity, 24 h, resazurin, unit not given (main-text tables: μg/mL), capital 95 mg, minor letter 5 mg): > 32 µg/mL
RWRWPRWRWPRWRW-NH2 [RW6-2P]	16	<= 0.25	2	<= 0.25	> 32	> 32			16	≤0.25	2	>32	> 32	≤0.25	>32		>32	MIC against MRSA [4, 10]: ≤ 0.25 µg/mL
RWRWRWRW-NH2 [RW4]	> 32	> 32	> 32	8	> 32	> 32	Low	Low		>32	>32	>32	> 32	8	>32	Moderate	>32	
RWRWRWRWRWRWRWRW-NH2 [RW8]	32	> 32	32	2	0.4523	> 32	Moderate	High	32	>32	32	>32	> 32	2	0.4523	High (Gram+), Moderate (Gram−)	>32	
penicillin [reference compound]	32	> 32	> 32	8	> 32	> 32												MIC against E. coli ([1]; E. coli ATCC 25922, CAMHB, 5 × 10^5 CFU/mL, 37 °C, 18 h, OD600, mixtures: capital letter component 95 mg, minor letter component 5 mg): 32 µg/mL; MIC against Pa ([2]; P. aeruginosa ATCC 27853, CAMHB, 5 × 10^5 CFU/mL, 37 °C, 18 h, OD600, mixtures: capital letter component 95 mg, minor letter component 5 mg): >32 µg/mL; MIC against Ab ([3]; A. baumannii ATCC 19606, CAMHB, 5 × 10^5 CFU/mL, 37 °C, 18 h, OD600, mixtures: capital letter component 95 mg, minor letter component 5 mg): >32 µg/mL; MIC against MRSA [4, 10]: 8 µg/mL

Source: PMC11923837, “Proline-Modified (RW)n Peptides: Enhancing the Antimicrobial Efficacy and Selectivity against Multidrug-Resistant Pathogens” (ACS Omega, 2025)
